What was measured:
G401 cells = assay: Cancer cell proliferation inhibition (Cell Counting Kit-8), rhabdoid tumor cell line; assay type: cell-based; conditions: Homo sapiens, G-401, 264 h, 1000 nM, cultured seven to 11 days; read-out: % inhibition rate G401
Procedure, shortened: (§1)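 Single 1000 nM dose of test substance, applied to cells seeded at 100–1,000 per well in 10% FBS medium, then culture for seven to 11 days. CCK-8 read-out; inhibition rate expressed as percent relative to untreated control.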

Lovo cells = assay: Cancer cell proliferation inhibition (Cell Counting Kit-8), colorectal cancer cell line; assay type: cell-based; conditions: Homo sapiens, LoVo, 264 h, 1000 nM, cultured seven to 11 days; read-out: % inhibition rate LoVo
Procedure, shortened: (§2)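 Percent inhibition, calculated as {1−(test group/control group)} × 100, comes from Cell Counting Kit-8 measurement. Treatment was 1000 nM test substance for seven to 11 days on cells plated at 100 to 1,000 per well in serum-containing medium.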

EZH1 = EZH1 (Homo sapiens, UniProt Q92800); assay: AlphaLISA enzyme activity inhibition, EZH1; assay type: biochemical; conditions: for inhibition at 0.005 µM: 5nM test substance
Chain of EZH1 (Q92800 whole entry, species assumed): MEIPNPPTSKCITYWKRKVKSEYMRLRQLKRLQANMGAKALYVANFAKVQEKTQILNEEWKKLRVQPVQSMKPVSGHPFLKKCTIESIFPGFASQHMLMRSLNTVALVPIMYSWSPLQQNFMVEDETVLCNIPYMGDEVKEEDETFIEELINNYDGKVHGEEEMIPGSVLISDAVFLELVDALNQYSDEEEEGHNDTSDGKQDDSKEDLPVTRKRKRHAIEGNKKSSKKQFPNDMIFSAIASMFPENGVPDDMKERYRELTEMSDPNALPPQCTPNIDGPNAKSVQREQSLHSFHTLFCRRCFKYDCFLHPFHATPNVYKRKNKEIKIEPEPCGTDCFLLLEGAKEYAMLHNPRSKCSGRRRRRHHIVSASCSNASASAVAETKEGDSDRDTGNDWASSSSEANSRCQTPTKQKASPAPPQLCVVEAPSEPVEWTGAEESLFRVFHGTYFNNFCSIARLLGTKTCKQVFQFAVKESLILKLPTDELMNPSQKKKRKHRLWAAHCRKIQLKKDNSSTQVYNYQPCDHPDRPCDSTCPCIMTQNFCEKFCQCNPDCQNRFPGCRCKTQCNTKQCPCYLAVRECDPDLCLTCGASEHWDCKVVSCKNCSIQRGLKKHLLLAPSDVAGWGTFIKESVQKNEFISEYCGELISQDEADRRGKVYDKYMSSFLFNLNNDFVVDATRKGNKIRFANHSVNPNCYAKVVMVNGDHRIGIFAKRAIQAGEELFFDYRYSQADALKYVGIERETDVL
Chain of EZH1 (O75530 whole entry partner, species assumed): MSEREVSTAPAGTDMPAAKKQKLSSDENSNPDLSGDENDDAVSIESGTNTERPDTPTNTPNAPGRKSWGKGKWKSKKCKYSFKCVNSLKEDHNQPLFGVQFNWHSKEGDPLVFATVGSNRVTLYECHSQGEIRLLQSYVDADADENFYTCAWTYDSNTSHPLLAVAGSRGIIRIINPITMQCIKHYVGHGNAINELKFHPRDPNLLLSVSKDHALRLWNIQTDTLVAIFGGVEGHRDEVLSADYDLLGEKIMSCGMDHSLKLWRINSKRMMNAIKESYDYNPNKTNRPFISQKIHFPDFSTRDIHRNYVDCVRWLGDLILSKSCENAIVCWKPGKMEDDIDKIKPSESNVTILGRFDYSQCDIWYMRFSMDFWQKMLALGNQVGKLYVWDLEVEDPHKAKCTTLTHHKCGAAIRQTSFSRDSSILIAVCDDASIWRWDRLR
Chain of EZH1 (Q15022 whole entry partner, species assumed): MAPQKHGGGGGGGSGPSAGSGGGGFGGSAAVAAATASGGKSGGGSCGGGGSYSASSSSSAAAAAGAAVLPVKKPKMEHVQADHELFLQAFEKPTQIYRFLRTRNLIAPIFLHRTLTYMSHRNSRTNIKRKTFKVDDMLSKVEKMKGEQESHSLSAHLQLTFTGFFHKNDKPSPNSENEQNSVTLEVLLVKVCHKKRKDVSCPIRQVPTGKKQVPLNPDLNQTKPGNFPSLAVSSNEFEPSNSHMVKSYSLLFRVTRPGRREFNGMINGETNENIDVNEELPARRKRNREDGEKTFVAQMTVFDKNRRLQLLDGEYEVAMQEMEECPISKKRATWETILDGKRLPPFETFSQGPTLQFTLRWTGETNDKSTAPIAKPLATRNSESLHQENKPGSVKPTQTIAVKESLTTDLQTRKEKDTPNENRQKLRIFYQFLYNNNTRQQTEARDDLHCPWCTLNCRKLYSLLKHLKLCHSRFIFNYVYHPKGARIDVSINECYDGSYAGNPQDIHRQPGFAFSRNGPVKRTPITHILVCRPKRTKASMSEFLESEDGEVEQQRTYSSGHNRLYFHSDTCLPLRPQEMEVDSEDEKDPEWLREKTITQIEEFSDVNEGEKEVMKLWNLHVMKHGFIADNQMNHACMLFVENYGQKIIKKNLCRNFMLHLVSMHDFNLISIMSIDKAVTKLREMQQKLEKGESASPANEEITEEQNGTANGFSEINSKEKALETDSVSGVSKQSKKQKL
Procedure, shortened: (§3)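 Enzyme inhibition rate was calculated relative to DMSO from AlphaLISA signal, with acceptor beads added after a 2 h methylation reaction and donor beads 1 h later. Each enzyme, EZH1 or EZH2, was pre-mixed with compound (final 5 nM or 10 nM) in Tris buffer pH 8.0 before histone H3 peptide and SAM initiated the reaction.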

NCI-H1299 cells = assay: Cancer cell proliferation inhibition (Cell Counting Kit-8), lung cancer cell line; assay type: cell-based; conditions: Homo sapiens, NCI-H1299, 264 h, 1000 nM, cultured seven to 11 days; read-out: % inhibition rate NCI-H129 9
Procedure, shortened: as §2

MKN-45 cells = assay: Cancer cell proliferation inhibition (Cell Counting Kit-8), gastric cancer cell line; assay type: cell-based; conditions: Homo sapiens, MKN-45, 264 h, 1000 nM, cultured seven to 11 days; read-out: % inhibition rate MKN -45
Procedure, shortened: as §1

SW-13 cells = assay: Cancer cell proliferation inhibition (Cell Counting Kit-8), adrenal cancer cell line; assay type: cell-based; conditions: Homo sapiens, SW13, 264 h, 1000 nM, cultured seven to 11 days; read-out: % inhibition rate SW-13
Procedure, shortened: as §2

MIA-PaCa-2 cells = assay: Cancer cell proliferation inhibition (Cell Counting Kit-8), pancreatic cancer cell line; assay type: cell-based; conditions: Homo sapiens, MIA PaCa-2, 264 h, 1000 nM, cultured seven to 11 days; read-out: % inhibition rate MIA-Paca2
Procedure, shortened: as §2

EZH2 = EZH2 (Homo sapiens, UniProt Q15910); assay: AlphaLISA enzyme activity inhibition, EZH2; assay type: biochemical; conditions: for inhibition at 0.005 µM: 5nM test substance
Chain of EZH2 (Q15910 whole entry, species assumed): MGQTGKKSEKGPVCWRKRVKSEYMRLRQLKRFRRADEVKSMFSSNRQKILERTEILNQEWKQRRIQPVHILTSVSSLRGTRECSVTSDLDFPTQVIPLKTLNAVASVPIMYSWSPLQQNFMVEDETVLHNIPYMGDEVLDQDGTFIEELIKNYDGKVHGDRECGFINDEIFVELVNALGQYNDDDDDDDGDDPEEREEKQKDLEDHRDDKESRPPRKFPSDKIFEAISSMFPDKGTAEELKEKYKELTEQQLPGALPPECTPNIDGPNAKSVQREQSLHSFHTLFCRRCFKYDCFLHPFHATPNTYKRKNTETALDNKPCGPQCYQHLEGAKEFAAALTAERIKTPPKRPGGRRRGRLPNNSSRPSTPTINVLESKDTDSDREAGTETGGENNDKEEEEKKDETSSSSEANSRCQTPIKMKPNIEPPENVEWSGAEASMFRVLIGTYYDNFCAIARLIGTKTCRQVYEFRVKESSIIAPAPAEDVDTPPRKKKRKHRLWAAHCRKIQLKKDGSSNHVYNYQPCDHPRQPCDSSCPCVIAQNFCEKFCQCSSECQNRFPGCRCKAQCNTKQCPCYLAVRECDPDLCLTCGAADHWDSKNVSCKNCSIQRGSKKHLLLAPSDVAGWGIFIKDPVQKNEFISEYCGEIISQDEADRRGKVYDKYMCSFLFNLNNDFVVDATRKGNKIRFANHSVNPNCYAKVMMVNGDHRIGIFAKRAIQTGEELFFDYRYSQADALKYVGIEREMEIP
Chain of EZH2 (O75530 whole entry partner, species assumed): as the sequence (O75530 whole entry partner, species assumed) above
Chain of EZH2 (Q15022 whole entry partner, species assumed): as the sequence (Q15022 whole entry partner, species assumed) above
Procedure, shortened: as §3

| Structure (SMILES) | inhibition at 1 µM (G401 cells) [%] | inhibition at 1 µM (Lovo cells) [%] | inhibition at 0.005 µM (EZH1) [%] | inhibition at 1 µM (NCI-H1299 cells) [%] | inhibition at 1 µM (MKN-45 cells) [%] | inhibition at 1 µM (SW-13 cells) [%] | inhibition at 1 µM (MIA-PaCa-2 cells) [%] | inhibition at 0.005 µM (EZH2) [%] | inhibition at 0.01 µM (EZH1; 10nM test substance) [%] | inhibition at 0.01 µM (EZH2; 10nM test substance) [%] |
| --- | --- | --- | --- | --- | --- | --- | --- | --- | --- | --- |
| CSc1cc(C)[nH]c(=O)c1CNC(=O)c1cc(-c2ccc(N3C[C@@H](C)O[C@@H](C)C3)nc2)c2c(c1C)OC(C)([C@H]1CC[C@H](N(C)CC3OCCO3)CC1)O2 (stereo partly drawn) [Compound 32, 2-(trans-4-(((1,3-dioxolan-2-yl)methyl)(methyl)amino)cyclohexyl)-7-(6-((2S,6R)-2,6-dimethylmorpholino)pyridin-3-yl)-2,4-dimethyl-N-((6-methyl-4-(methylthio)-2-oxo-1,2-dihydropyridin-3-yl)methyl)benzo[d][1,3]dioxole-5-carboxamide] | 30 to 70 | ≥ 70 | 74.1 | 30 to 70 | 30 to 70 | 30 to 70 | ≤ 30 | 82.6 | – | – |
| CSc1cc(C)[nH]c(=O)c1CNC(=O)c1cc(-c2ccc(N3C[C@@H](C)O[C@@H](C)C3)nc2)c2c(c1C)OC(C)(C1CCN(CC(F)(F)F)CC1)O2 (stereo partly drawn) [Compound 33, 7-(6-((2S,6R)-2,6-dimethylmorpholino)pyridin-3-yl)-2,4-dimethyl-N-((6-methyl-4-(methylthio)-2-oxo-1,2-dihydropyridin-3-yl)methyl)-2-(1-(2,2,2-trifluoroethyl)piperidin-4-yl)benzo[d][1,3]dioxole-5-carboxamide] | ≥ 70 | ≥ 70 | 37.6 | ≤ 30 | 30 to 70 | 30 to 70 | ≤ 30 | 59.1 | – | – |
| CSc1cc(C)[nH]c(=O)c1CNC(=O)c1cc(-c2ccc(N3CCSCC3)nc2)c2c(c1C)OC(C)(C1CCN(CC(F)(F)F)CC1)O2 (centres unmarked) [Compound 34, 2,4-dimethyl-N-((6-methyl-4-(methylthio)-2-oxo-1,2-dihydropyridin-3-yl)methyl)-7-(6-thiomorpholinopyridin-3-yl)-2-(1-(2,2,2-trifluoroethyl)piperidin-4-yl)benzo[d][1,3]dioxole-5-carboxamide] | 30 to 70 | ≥ 70 | 24.9 | ≤ 30 | ≤ 30 | ≤ 30 | ≤ 30 | 41.1 | – | – |
| CSc1cc(C)[nH]c(=O)c1CNC(=O)c1cc(-c2cnc(N(C)C)nc2)c2c(c1C)OC(C)(C1CCN(CC(F)(F)F)CC1)O2 (centres unmarked) [Compound 35, 7-(2-(dimethylamino)pyrimidin-5-yl)-2,4-dimethyl-N-((6-methyl-4-(methylthio)-2-oxo-1,2-dihydropyridin-3-yl)methyl)-2-(1-(2,2,2-trifluoroethyl)piperidin-4-yl)benzo[d][1,3]dioxole-5-carboxamide] | ≥ 70 | ≥ 70 | 67.7 | ≤ 30 | ≤ 30 | ≤ 30 | ≤ 30 | 94 | – | – |
| COc1ccc(-c2cc(C(=O)NCc3c(SC)cc(C)[nH]c3=O)c(C)c3c2OC(C)(C2CCN(CC(F)(F)F)CC2)O3)cn1 (centres unmarked) [Compound 36, 7-(6-methoxypyridin-3-yl)-2,4-dimethyl-N-((6-methyl-4-(methylthio)-2-oxo-1,2-dihydropyridin-3-yl)methyl)-2-(1-(2,2,2-trifluoroethyl)piperidin-4-yl)benzo[d][1,3]dioxole-5-carboxamide] | ≥ 70 | ≥ 70 | 57.4 | ≤ 30 | ≤ 30 | ≤ 30 | ≤ 30 | 83.1 | – | – |
| CSc1cc(C)[nH]c(=O)c1CNC(=O)c1cc(-c2cnc(N3C[C@@H](C)O[C@@H](C)C3)nc2)c2c(c1C)OC(C)(C1CCN(CC(F)(F)F)CC1)O2 (stereo partly drawn) [Compound 38, 7-(2-((2S,6R)-2,6-dimethylmorpholino)pyrimidin-5-yl)-2,4-dimethyl-N-((6-methyl-4-(methylthio)-2-oxo-1,2-dihydropyridin-3-yl)methyl)-2-(1-(2,2,2-trifluoroethyl)piperidin-4-yl)benzo[d][1,3]dioxole-5-carboxamide] | ≥ 70 | ≥ 70 | 40.6 | 30 to 70 | 30 to 70 | ≤ 30 | ≤ 30 | 57.4 | – | – |
| CSc1cc(C)[nH]c(=O)c1CNC(=O)c1cc(-c2cnc(N3CCCCC3)nc2)c2c(c1C)OC(C)(C1CCN(CC(F)(F)F)CC1)O2 (centres unmarked) [Compound 39, 2,4-dimethyl-N-((6-methyl-4-(methylthio)-2-oxo-1,2-dihydropyridin-3-yl)methyl)-7-(2-(piperidin-1-yl)pyrimidin-5-yl)-2-(1-(2,2,2-trifluoroethyl)piperidin-4-yl)benzo[d][1,3]dioxole-5-carboxamide] | 30 to 70 | ≥ 70 | 20.5 | ≤ 30 | ≤ 30 | ≤ 30 | ≤ 30 | 62 | – | – |
| CSc1cc(C)[nH]c(=O)c1CNC(=O)c1cc(-c2ccc(N3C[C@@H](C)O[C@@H](C)C3)nc2)c2c(c1C)OC(C)(C1CCN(C[C@H](C)O)CC1)O2 (stereo partly drawn) [Compound 40, 7-(6-((2S,6R)-2,6-dimethylmorpholino)pyridin-3-yl)-2-(1-((S)-2-hydroxypropyl)piperidin-4-yl)-2,4-dimethyl-N-((6-methyl-4-(methylthio)-2-oxo-1,2-dihydropyridin-3-yl)methyl)benzo[d][1,3]dioxole-5-carboxamide] | ≥ 70 | 30 to 70 | 73.8 | 30 to 70 | ≤ 30 | 30 to 70 | ≤ 30 | 94.6 | – | – |
| COC(CN1CCC(C2(C)Oc3c(-c4ccc(N5C[C@@H](C)O[C@@H](C)C5)nc4)cc(C(=O)NCc4c(SC)cc(C)[nH]c4=O)c(C)c3O2)CC1)OC (stereo partly drawn) [Compound 41, 2-(1-(2,2-dimethoxyethyl)piperidin-4-yl)-7-(6-((2S,6R)-2,6-dimethylmorpholino)pyridin-3-yl)-2,4-dimethyl-N-((6-methyl-4-(methylthio)-2-oxo-1,2-dihydropyridin-3-yl)methyl)benzo[d][1,3]dioxole-5-carboxamide] | ≥ 70 | ≥ 70 | 69.1 | ≤ 30 | ≤ 30 | ≤ 30 | ≤ 30 | 96.8 | – | – |
| CSc1cc(C)[nH]c(=O)c1CNC(=O)c1cc(-c2ccsc2)c2c(c1C)OC(C)(C1CCC(N(C)C)CC1)O2 (centres unmarked) [Compound 42, 2-(4-(dimethylamino)cyclohexyl)-2,4-dimethyl-N-((6-methyl-4-(methylthio)-2-oxo-1,2-dihydropyridin-3-yl)methyl)-7-(thiophen-3-yl)benzo[d][1,3]dioxole-5-carboxamide] | ≥ 70 | ≥ 70 | 59.6 | 30 to 70 | 30 to 70 | 30 to 70 | ≤ 30 | 90.5 | – | – |
| COc1ccc(F)cc1-c1cc(C(=O)NCc2c(SC)cc(C)[nH]c2=O)c(C)c2c1OC(C)(C1CCC(N(C)C)CC1)O2 (centres unmarked) [Compound 43, 2-(4-(dimethylamino)cyclohexyl)-7-(5-fluoro-2-methoxyphenyl)-2,4-dimethyl-N-((6-methyl-4-(methylthio)-2-oxo-1,2-dihydropyridin-3-yl)methyl)benzo[d][1,3]dioxole-5-carboxamide] | ≥ 70 | ≥ 70 | 65.6 | 30 to 70 | 30 to 70 | ≤ 30 | ≤ 30 | 94.6 | – | – |
| CSc1cc(C)[nH]c(=O)c1CNC(=O)c1cc(-c2ccc(N3C[C@@H](C)O[C@@H](C)C3)nc2)c2c(c1C)OC(C)(C1CCN(CC(F)F)CC1)O2 (stereo partly drawn) [Compound 46, 2-(1-(2,2-difluoroethyl)piperidin-4-yl)-7-(6-((2S,6R)-2,6-dimethylmorpholino)pyridin-3-yl)-2,4-dimethyl-N-((6-methyl-4-(methylthio)-2-oxo-1,2-dihydropyridin-3-yl)methyl)benzo[d][1,3]dioxole-5-carboxamide] | ≥ 70 | ≥ 70 | 44.7 | 30 to 70 | 30 to 70 | 30 to 70 | ≤ 30 | 59.2 | 63 | 84 |
